Common to all, as to type: in vivo
Assay [1] in a line: Flavor profile determined by a trained panel of at least 5 testers. As to the method: The flavor profiles were determined by a trained panel of at least 5 testers by tasting against a 0.5% strength salt and a 0.5% strength sugar solution
A short description of assay [2]: Saltiness of a stock tasted against a reference series of the same stock with different salt contents. The conditions noted are these: reference series 0.2%, 0.4%, 0.5% salt. From the text: In another test, the saltiness of a stock having a salt content of 0.3% and 5 ppm of an equimolar mixture of 1-(3-hydroxy-propyl)-3-((1S,2S,5R)-2-isopropyl-5-methyl-cyclohexyl)-urea (3) and 1-(3-hydroxy-propyl)-3-((1R,2R,5S)-2-isopropyl-5-methyl-cyclohexyl)-urea (4) added was tasted. The testers evaluated this stock against a reference series of this same stock with salt contents of 0.2%, 0.3%, 0.4% and 0.5%. The saltiness of the stock with a salt content of 0.3% and 5 ppm of an equimolar mixture of 1-(3-hydroxy-propyl)-3-((1S,2S,5R)-2-isopropyl-5-methyl-cyclohexyl)-urea (3) and 1-(3-hydroxy-propyl)-3-((1R,2R,5S)-2-isopropyl-5-methyl-cyclohexyl)-urea (4) added was evaluated with a saltiness of 0.36% on average.
In another test, the saltiness of a stock having a salt content of 0.3% and 3 ppm of an equimolar mixture of (3-methoxy-propyl)-carbamic acid (1S,2S,5R)-2-isopropyl-5-methyl-cyclohexyl ester (9) and (3-methoxy-propyl)-carbamic acid (1R,2R,5S)-2-isopropyl-5-methyl-cyclohexyl ester (10) was tasted. The testers evaluated this stock against a reference series of this same stock with salt contents of 0.2%, 0.3%, 0.4% and 0.5%. […]

Assay [3] can be described thus: Flavor comparison in American beef extract base (FIG. 1), panel of trained testers. To be noted: 1 ppm of 1:1 mixture in American beef extract base vs base with 0.05 wt. % MSG. From the text:
This is also shown by the spider diagram appended as FIG. 1, in which an American beef extract as a base is compared with (i) such a base having 1 ppm of a 1:1 mixture of 1-((1S,2S,5R)-2-isopropyl-5-methyl-cyclohexyl)-3-(3-methoxy-propyl)-urea (1) and 1-((1R,2R,5S)-2-isopropyl-5-methyl-cyclohexyl)-3-(3-methoxy-propyl)-urea (2) added and (ii) with such a base having 0.05 wt. % of MSG (sodium glutamate) added. The observations above apply accordingly for all mixtures to be used according to the invention.
The flavor of a 0.5% American beef extract as the base (solid dark line) was compared with the aid of tasting by a panel of trained testers with the flavor firstly of such a base to which 1 ppm of a mixture of 1-((1S,2S,5R)-2-isopropyl-5-methyl-cyclohexyl)-3-(3-methoxy-propyl)-urea (1) and 1-((1R,2R,5S)-2-Isopropyl-5-methyl-cyclohexyl)-3-(3-methoxy-propyl)-urea (2) was added (solid light line), and secondly such a base to which 0.05 wt. % MSG was added (dotted line).
(§1) The testers evaluated the strength of the test directions indicated, in each case by specifying marks on a scale of from 0 (no corresponding flavor) to 8 (very strong corresponding flavor). The average values of the respective marks are represented.

The nature of assay [4]: Flavor comparison in chicken aroma base (FIG. 2), panel of trained testers. To be noted: 1 ppm in chicken aroma base vs base with 0.2 wt. % standard aroma (containing MSG).
Source text: Here, a base for a chicken aroma is compared with (i) such a base having 1 ppm of the pure-enantiomer compound 1-((1S,2S,5R)-2-isopropyl-5-methyl-cyclohexyl)-3-(3-methoxy-propyl)-urea (1) added and (ii) with such a base having 0.2 wt. % of a standard aroma (containing MSG) added.
The flavor of the chicken base (solid dark line) was compared with the aid of tasting by a panel of trained testers with the flavor firstly of such a base to which 1 ppm of 1-((1S,2S,5R)-2-Isopropyl-5-methyl-cyclohexyl)-3-(3-methoxy-propyl)-urea (1) was added (solid light line), and secondly such a base to which 0.2 wt. % of a standard chicken aroma containing sodium glutamate was added (dotted line).
as §1

Where [5] appears, read: trained panel of at least 5 testers, tasting against a 0.5% strength salt and a 0.5% strength sugar solution.
[6] abbreviates: table of further examples, prepared from racemic neo-menthol or neo-menthylamine and tasted.

The source of these data is patent publication US8852664B2, “Neo-menthyl derivatives as flavor materials” (Symrise AG, priority 2008, dated 2014).

Turning to “1-(3-Hydroxy-propyl)-3-((1S,2S,5R)-2-isopropyl-5-methyl-cyclohexyl)-urea (3)/1-(3-Hydroxy-propyl)-3-((1R,2R,5S)-2-isopropyl-5-methyl-cyclohexyl)-urea (4) [Synthesis Example 2]”, the “Flavor Profile” value in assay [1] (setting [5]) is recorded as “fishy, salty, weakly umami”. The “saltiness evaluated on average” value in assay [2] (stock with salt content 0.3% and 5 ppm added) is recorded as 0.36%.
In the case of “1-((1S,2S,5R)-2-Isopropyl-5-methyl-cyclohexyl)-3-(3-methoxy-propyl)-urea (1)/1-((1R,2R,5S)-2-isopropyl-5-methyl-cyclohexyl)-3-(3-methoxy-propyl)-urea (2) [Synthesis Example 1]”, the “Flavor Profile” value in assay [1] (setting [5]) is recorded as “sweet, salty, metallic, umami”. Besides, the “flavor compared with sodium glutamate (MSG)” value in assay [3] is “clear umami flavor very closely approximating sodium glutamate (MSG), which also significantly enhances the saltiness of the base but without tasting unpleasantly sweet”.
On to `CC(C)[C@@H]1CC[C@@H](C)C[C@@H]1OC(=O)NCCCO` (racemic), for which, in assay [1] (setting [6]), the “Flavor Profile” value was “soapy, vegetable, asparagus, potato, mouthfeel, slightly umami”.
Consider `COCCNC(=O)O[C@H]1C[C@H](C)CC[C@H]1C(C)C` (racemic), for which the “Flavor Profile” value in assay [1] (setting [6]) is recorded as “sweet, umami”.
Regarding `COCCNC(=O)N[C@H]1C[C@H](C)CC[C@H]1C(C)C` (racemic), the “Flavor Profile” value in assay [1] (setting [6]) is given as “fishy, salty, umami”.
On the same count and under the same terms, for `CC(C)[C@@H]1CC[C@@H](C)C[C@@H]1OC(=O)Nc1ccccc1` (racemic) the value was “bitter, dry, dusty, umami, dull”; for `CC(C)[C@@H]1CC[C@@H](C)C[C@@H]1OC(=O)NCCCCO` (racemic), “slightly bitter, salty, umami”; for `CC(C)[C@@H]1CC[C@@H](C)C[C@@H]1NC(=S)NC1CCCC1` (racemic), “bitter, long-lasting, umami, metallic”.
Same read-out and setting: for `COCCCNC(=S)N[C@H]1C[C@H](C)CC[C@H]1C(C)C` (racemic) the value was “very bitter, umami”.
On the same count and under the same terms, to `CCNC(=S)N[C@H]1C[C@H](C)CC[C@H]1C(C)C` (racemic) belongs “bitter, dry-dusty, umami”; to `COCC(C)NC(=S)N[C@H]1C[C@H](C)CC[C@H]1C(C)C` (mixture of isomers), “bitter, slightly umami”; to `CC(C)[C@@H]1CC[C@@H](C)C[C@@H]1NC(=S)NC1CC1` (racemic), “bitter, mouthfeel, umami”.
Consider `COCCCNC(=O)N[C@H]1C[C@H](C)CC[C@H]1C(C)C` [(1), 1-((1S,2S,5R)-2-isopropyl-5-methyl-cyclohexyl)-3-(3-methoxy-propyl)-urea], for which the “Flavor Profile” value in assay [1] (setting [5]) is on record as “salty, long-lasting, umami, no by notes”. Further, in assay [4], the “flavor character compared with standard aroma containing MSG” value was “genuine MSG-like character”.
`COCCCNC(=O)O[C@H]1C[C@H](C)CC[C@H]1C(C)C` [(9), (3-methoxy-propyl)-carbamic acid (1S,2S,5R)-2-isopropyl-5-methyl-cyclohexyl ester]: the “Flavor Profile” value in assay [1] (setting [5]) is given as “umami, salty, metallic, bitter”.
On the same count and under the same terms, to `COCCCNC(=O)O[C@@H]1C[C@@H](C)CC[C@@H]1C(C)C` [(10), (3-methoxy-propyl)-carbamic acid (1R,2R,5S)-2-isopropyl-5-methyl-cyclohexyl ester] belongs “umami, salty, metallic, not bitter”; to `CCOC(=O)CCCNC(=O)O[C@H]1C[C@H](C)CC[C@H]1C(C)C` [(11), 4-((1S,2S,5R)-2-isopropyl-5-methyl-cyclohexyloxycarbonylamino)-butyric acid ethyl ester], “salty, umami, relatively weak in comparison with the racemate”; to `CCOC(=O)CCCNC(=O)O[C@@H]1C[C@@H](C)CC[C@@H]1C(C)C` [(12), 4-((1R,2R,5S)-2-isopropyl-5-methyl-cyclohexyloxycarbonylamino)-butyric acid ethyl ester], “salty, umami, delayed and weaker in comparison with the racemate”.
Take “(3-Methoxy-propyl)-carbamic acid (1S,2S,5R)-2-isopropyl-5-methyl-cyclohexyl ester (9) and (3-methoxy-propyl)-carbamic acid (1R,2R,5S)-2-isopropyl-5-methyl-cyclohexyl ester (10) [Synthesis Example 5]”: the “Flavor Profile” value in assay [1] (setting [5]) is listed as “sweet, salty, umami, slightly bitter”. Also, the “saltiness evaluated on average” value in assay [2] (stock with salt content 0.3% and 3 ppm added) stood at 0.35%.
